This note sets out measurements from ChEMBL document CHEMBL3507680, “University of Dundee, Gates Library screen for HepG2 cell viability”.

Molecules are shown by their SMILES.

This series can be described thus: Human HepG2 cell viability assay in 384 well format. Format: toxicity, cell-based. Also noted: dose 125 nL, time 70.5 hour; cytotoxicity at 70.5 h: concentration not given beside the values. The following applies: HepG2 cells, read-out: Inhibition.

Regarding `COCCNS(=O)(=O)c1ccc(CNc2ncccc2C#N)cc1`, the cytotoxicity at 70.5 h was -12.6%. For the molecule `O=C(c1cccnc1O)N1CCC(COc2ccccc2)CC1`, the cytotoxicity at 70.5 h was -14.5%.

`COc1cc2c(cc1OC)S(=O)(=O)N(Cc1ccccc1)C2=O`: the cytotoxicity at 70.5 h was -14.6%. The result for `COc1ccccc1N1CCN(Cc2nc(C)c(C)o2)CC1` reads -8.1%; that for `COc1cc(C(C)=O)ccc1SCC(=O)Nc1cc(C)n[nH]1`, -11.8%.

In the case of `COc1ccc2c(c1)CCCN(C(C)C(=O)NC(N)=O)C2` (stereo not drawn), the cytotoxicity at 70.5 h was -8.05%. As for `COc1cc(F)ccc1N1CCN(Cc2nc(C)c(C)o2)CC1`, the cytotoxicity at 70.5 h is -11.2%.

Consider `CCN(C)c1ccc(CNC(=O)c2cc(C(N)=O)cs2)cc1F`, for which the cytotoxicity at 70.5 h is -8.22%. With `CN(C)CCn1ccc2ccc(NC(=O)c3ccncc3F)cc21`, the cytotoxicity at 70.5 h was -6.52%. For `NC(=O)c1cccc(OCCC(=O)NC2CCc3c(F)cccc32)c1` (stereo not drawn), the cytotoxicity at 70.5 h is -9.97%. With `N#Cc1ccc(NCCc2n[nH]c(=O)[nH]2)cc1Cl`, the cytotoxicity at 70.5 h is -10.2%. The result for `O=C(c1coc2ccccc12)N1CCCC1` reads -9.29%; that for `O=C(CO)N1CCN(C(=O)c2coc3ccccc23)CC1`, -7.53%. For the molecule `CC(C)OCCSCc1nnc(-c2cccc(F)c2)o1`, the cytotoxicity at 70.5 h was -5.57%.

With `CCCN(Cc1ccc(C#N)cc1)Cc1nnsc1Cl`, the cytotoxicity at 70.5 h is 26.4%. As for `CC(=O)c1ccc(C(=O)N2CCCCC2c2nc[nH]n2)cc1` (stereo not drawn), the cytotoxicity at 70.5 h amounted to 1.34%.

As to `Cc1cc(NC(=O)CNc2cccc(C(=O)N3CCCC(O)C3)c2)no1` (stereo not drawn), the cytotoxicity at 70.5 h was -3.66%.

Consider `COc1cccc(CNc2cc(C)nc(-c3ccncc3)n2)c1OC`, for which the cytotoxicity at 70.5 h is -6.44%. In the case of `O=C(Nc1ccc(CC(=O)N2CCSCC2)cc1)NC1CCCC1`, the cytotoxicity at 70.5 h was -4.2%. The result for `CCOc1ccccc1C(CC(=O)O)NC(C)=O` (stereo not drawn) reads -4.62%; that for `CC(C)C(C)(C#N)NC(=O)Cn1cc(C(N)=O)c(-c2ccccc2)n1` (stereo not drawn), -6.34%. With `Cc1cc(C)n(C2CN(CCc3ccncc3)C2)n1`, the cytotoxicity at 70.5 h is 42.3%.

Turning to `CCc1ccc(NC(=O)C(C)N2CCN(Cc3ncc[nH]3)CC2)cc1` (stereo not drawn), the cytotoxicity at 70.5 h is -2.82%. Consider `COc1cc(CNc2cnn(CCN3CCOCC3)c2)cc(OC)c1`, for which the cytotoxicity at 70.5 h is -20.4%.

Take `CCS(=O)(=O)CCN(C)C(=O)NC(C)c1ccc(C)s1` (stereo not drawn): the cytotoxicity at 70.5 h is -5.27%. On to `OC(COCc1ccccc1F)CN1CCC(Cn2cccn2)CC1` (stereo not drawn), for which the cytotoxicity at 70.5 h is -0.0861%. The result for `CCN(C(=O)CCCOC)C(c1ccc(Cl)cc1)c1ccccn1` (stereo not drawn) reads 31.1%; that for `Cc1cccc2c1NC(c1cnc(C3CCC3)s1)NC2=O` (stereo not drawn), -18.5%; that for `O=C(COCc1ccccc1Cl)Nc1ccnn1CC1CCOC1` (stereo not drawn), -18.3%. The result for `COc1ccc(C2CCN(C(=O)c3ncccc3OC(C)C)C2)cc1` (stereo not drawn) reads 11.5%; that for `CCN(Cc1cnn(C)c1)C(=O)c1cc2ccccc2c(=O)[nH]1`, -7.09%; that for `NC(=O)CC1CCCCN1C(=O)Cc1cccc(Br)c1` (stereo not drawn), -4.57%. In the case of `CS(=O)(=O)NC1CCN(C(=O)c2[nH]c3ccc(Cl)cc3c2Cl)CC1`, the cytotoxicity at 70.5 h came out at 31.7%. For `Cc1cccc(C2(CNC(=O)C(C)S(C)(=O)=O)CCCC2)c1` (stereo not drawn), the cytotoxicity at 70.5 h is -3.73%. The result for `Cc1cccc(C2(CNC(=O)C(C)NC(N)=O)CCCC2)c1` (stereo not drawn) reads 4.08%; that for `CC(C(=O)N(C)C)S(=O)(=O)c1cc2c(cc1Cl)OCCO2` (stereo not drawn), -6.12%; that for `N#Cc1cc(S(N)(=O)=O)ccc1NC1CCc2cc(Cl)ccc21` (stereo not drawn), -11.2%.

Turning to `N#Cc1cc(S(N)(=O)=O)ccc1NC1CCc2ccc(F)cc21` (stereo not drawn), the cytotoxicity at 70.5 h came out at 7.54%. For the molecule `Cn1cc(CNc2ccc(CCO)cc2)c(-c2ccncc2)n1`, the cytotoxicity at 70.5 h is 21.4%. Take `Cc1ccc(OCC(O)Cn2ncc3cnn(C)c(=O)c32)cc1` (stereo not drawn): the cytotoxicity at 70.5 h is -6.88%.

As for `Cc1ccc(N2CCCC(N3CCN(CC(F)F)CC3)C2=O)cc1` (stereo not drawn), the cytotoxicity at 70.5 h is -6.94%.

Consider `CSCCN(C)Cc1ccc(F)cc1C#N`, for which the cytotoxicity at 70.5 h was -4.74%. On to `Cc1cnc(NCc2ccc(S(=O)(=O)N(C)C(C)C)cc2)nc1C`, for which the cytotoxicity at 70.5 h is -11.1%.

`CCCc1nccn1CCn1cnc2ccsc2c1=O`: the cytotoxicity at 70.5 h worked out at 1.1%.

Take `CC(C)c1nccn1CCn1cnc2ccsc2c1=O`: the cytotoxicity at 70.5 h is -8.28%. Regarding `CN(Cc1ccc(F)cc1C#N)CC(F)(F)F`, the cytotoxicity at 70.5 h is 17.4%. Take `Cc1cc(C)n(C2CN(CC(O)Cn3cccn3)C2)n1` (stereo not drawn): the cytotoxicity at 70.5 h was determined as 7.73%.

As to `Cc1ccc(C)c(CS(=O)(=O)CC(=O)N(C)Cc2cccc(F)c2)c1`, the cytotoxicity at 70.5 h was 21.1%. As for `Cc1ccccc1CS(=O)(=O)CC(=O)N(C)Cc1ccccc1`, the cytotoxicity at 70.5 h was -9.59%. `Cc1noc(C)c1CNC(=O)C1(NS(C)(=O)=O)CCCCC1`: the cytotoxicity at 70.5 h is -5.85%.

As to `Cc1noc(C)c1CN(C)C(=O)C1(NS(C)(=O)=O)CCCCC1`, the cytotoxicity at 70.5 h is -0.856%. As for `COCc1nc(C(=O)N2CCN(Cc3cc(C)on3)CC2)cs1`, the cytotoxicity at 70.5 h is -5.75%. In the case of `CC(C(=O)NC1CC1)S(=O)(=O)Cc1csc(-c2cccs2)n1` (stereo not drawn), the cytotoxicity at 70.5 h was determined as 11%. In the case of `COCCN1CCC(NCc2c(C)nn(C)c2N(C)C)CC1`, the cytotoxicity at 70.5 h was -4.85%. With `Cc1ccccc1CS(=O)(=O)CC(=O)N(C)Cc1ccccc1F`, the cytotoxicity at 70.5 h was -1.24%.

Consider `Cc1noc(C)c1CN(C)C(=O)C1(N)CCCCC1`, for which the cytotoxicity at 70.5 h was -2.97%. Take `O=C(C1CCCN1S(=O)(=O)C1CCCC1)N1CCSCC1` (stereo not drawn): the cytotoxicity at 70.5 h is -5.09%.

Consider `Cc1nnc(CN2CCCC2c2cccc(Br)c2)o1` (stereo not drawn), for which the cytotoxicity at 70.5 h was -4.5%. Take `CC(C)N(C)S(=O)(=O)N1CCCC1C(=O)N1CCSCC1` (stereo not drawn): the cytotoxicity at 70.5 h is -0.523%. In the case of `CCN1CCN(c2ccc(C(=O)NCCOC)cc2F)CC1`, the cytotoxicity at 70.5 h was found to be 25.2%.

On to `Cc1cnn(C2CN(CC(O)Cn3cccn3)C2)c1` (stereo not drawn), for which the cytotoxicity at 70.5 h amounted to 7.89%. With `NS(=O)(=O)c1cnn(-c2ccc(NC(=O)CC3CCCC3)cn2)c1`, the cytotoxicity at 70.5 h is -5.14%.

As to `NS(=O)(=O)c1cnn(-c2ccc(NC(=O)C3CCCCC3)cn2)c1`, the cytotoxicity at 70.5 h was -0.503%.

With `Cc1ccc(C(=O)NS(=O)(=O)Cc2ccon2)c(C)c1`, the cytotoxicity at 70.5 h is -4.2%. The result for `CC(c1cc(F)ccc1F)N1CCN(C(=O)c2ccc(=O)[nH]c2)CC1` (stereo not drawn) reads -1.22%. With `COc1cc(C)c(CNC(C)c2csc(C3CC3)n2)cc1OC` (stereo not drawn), the cytotoxicity at 70.5 h was -4%. With `CCOc1cc(CNC(C)c2sccc2C)ccn1` (stereo not drawn), the cytotoxicity at 70.5 h was -0.185%.

Regarding `CCOc1cc(CNC(C)c2ccc(F)cc2)ccn1` (stereo not drawn), the cytotoxicity at 70.5 h was determined as 26.8%.

`CCN(C(=O)C1Cc2cc(Cl)ccc2O1)C1CC1` (stereo not drawn): the cytotoxicity at 70.5 h was -2.35%. For the molecule `CS(=O)(=O)N1CCN(CC(=O)Nc2cccc(Cl)c2)CC1`, the cytotoxicity at 70.5 h was determined as 5.96%. The result for `CC(C)(NC(=O)c1cnc(-c2ccccc2F)s1)C(N)=O` reads -10.3%; that for `CN(Cc1cccc(F)c1)S(=O)(=O)N1CCOCC1`, -3.2%. As for `O=C(NCc1cc[nH]n1)NC1CCCN(c2ncccn2)C1` (stereo not drawn), the cytotoxicity at 70.5 h was -6.39%.

Turning to `O=C(NCc1ccoc1)NC1CCCN(c2ncccn2)C1` (stereo not drawn), the cytotoxicity at 70.5 h was -4.3%.

As to `O=C(NCc1ccc(F)cc1)N1CCC(C2OCCO2)CC1`, the cytotoxicity at 70.5 h is -10%. For `COCCn1ccc2cc(NC(C)=O)ccc21`, the cytotoxicity at 70.5 h was -5.43%. Consider `CN(Cc1nccn1CC(F)(F)F)C(=O)c1ccc(F)c(F)c1`, for which the cytotoxicity at 70.5 h was -1.82%.

As for `COc1cccc2c1OCC(NC(=O)NCc1cccs1)C2` (stereo not drawn), the cytotoxicity at 70.5 h is -0.177%.

Regarding `CCc1nccn1C1CCCN(C(=O)c2cnc3ccccc3n2)C1` (stereo not drawn), the cytotoxicity at 70.5 h was -2.77%. With `CCc1nccn1C1CCCN(C(=O)c2ccc3[nH]cnc3c2)C1` (stereo not drawn), the cytotoxicity at 70.5 h was -5.72%. The result for `CC(O)CN1CCN(C(=O)c2cc3ccccc3[nH]c2=O)CC1` (stereo not drawn) reads -11%; that for `CC(NC(=O)NCC1(O)CCC1)c1ccc(OCC2CC2)c(F)c1` (stereo not drawn), -12%. `Cc1ccc(CCC(=O)N(C)CCN2CCOCC2)c(C)c1`: the cytotoxicity at 70.5 h was -0.456%. For the molecule `CCc1csc(C2CCCN(C(=O)c3cnn(CC)c3)C2)n1` (stereo not drawn), the cytotoxicity at 70.5 h turned out to be 6.03%.

As for `Cc1cccc(NC(=O)c2sccc2C)n1`, the cytotoxicity at 70.5 h amounted to 36.7%. With `O=C(C1CC1)N1CCC2(CC1)OCCO2`, the cytotoxicity at 70.5 h is -6.55%. On to `COCCNC(=O)c1ccc(C)c(-n2cccc2)c1`, for which the cytotoxicity at 70.5 h is -2.8%. Turning to `CS(=O)(=O)NCCCNC(=O)c1cccc(-n2cccc2)c1`, the cytotoxicity at 70.5 h is -1.21%.

`CC(=O)N1CCN(CCNS(=O)(=O)c2ccc(C)c(F)c2)CC1`: the cytotoxicity at 70.5 h came to 28.3%. On to `O=C(CN1CCCC(O)C1)NC(=O)NCc1cccs1` (stereo not drawn), for which the cytotoxicity at 70.5 h is -8.04%. On to `O=C(CCNC(=O)c1ccccc1)Nc1ccncc1`, for which the cytotoxicity at 70.5 h is -18%. The result for `Cn1cc(NC(=O)Cn2c(CS(C)(=O)=O)nc3ccccc32)cn1` reads -6.35%.

For the molecule `O=C(NCCCNC(=O)c1cccc(O)c1)NCc1ccccc1F`, the cytotoxicity at 70.5 h was -9.83%. In the case of `Cc1nc(C2(NCC(=O)NC(=O)NCc3cccs3)CCCCC2)no1`, the cytotoxicity at 70.5 h is -12.5%. Regarding `Cc1ccc(C(=O)N(C)Cc2cc(Br)cs2)c(=O)[nH]1`, the cytotoxicity at 70.5 h was -11.5%. On to `Cc1ccc(C(=O)N(C)Cc2cscn2)c(=O)[nH]1`, for which the cytotoxicity at 70.5 h was -12.9%.

As for `CCc1ccc(C(=O)N2CCC(c3nncn3CC)CC2)cc1`, the cytotoxicity at 70.5 h stood at 33.4%. The result for `Cc1nn(C)c2sc(C(=O)N3CCCC(n4ccnc4C)C3)cc12` (stereo not drawn) reads -7.74%; that for `Cc1ccc(CC2CCCN2CC(=O)NCc2cccnc2)cc1` (stereo not drawn), -15.4%. The result for `Cn1cc(CC2CCN(C(=O)NCCc3cccc(O)c3)C2)cn1` (stereo not drawn) reads -12.6%; that for `CCCN1CCN(C(=O)c2scnc2C)CC1`, -3.56%. The result for `Cn1cc(CC2CCN(C(=O)NCc3cn4ccsc4n3)C2)cn1` (stereo not drawn) reads 23.7%; that for `Cc1nn(C)c(Cl)c1CNCc1cccnc1N1CCOCC1`, 0.768%.
